Results from PMC9238271, “The quorum sensing peptide EntF* promotes colorectal cancer metastasis in mice: a new factor in the host-microbiome interaction” (BMC Biology, 2022).

What was measured:
[1] = In vitro metabolization of EntF: formation of EntF* in colon tissue homogenate; assay type: in vitro ADME, C57BL/6 female mice
Protocol: Krebs-Henseleit (KH) buffer (Sigma-Aldrich, Belgium) was prepared by dissolving the powdered medium in 900 mL water while stirring. Once the powder was completely dissolved, 0.3790 g CaCl2•2H2O and 2.098 g NaHCO3 were added to the solution. NaOH or HCl was used to adjust the pH to 7.4. The solution was brought to final volume (1000 mL) with ultrapure water.
For the preparation of colon tissue homogenates for EntF in vitro metabolization study, colons were collected from two untreated C57BL/6 female mice after cervical dislocation. After cleaning and rinsing the organs with ice-cold KH buffer, colons were cut into small pieces and transferred into 15 mL tubes containing 5 mL ice-cold KH buffer. Colon tissues were homogenized for 1 min. Larger particles were allowed to sediment for about 30 min at 5 °C, and then approximately 2 mL of the middle layer of each tube was transferred into a 2 mL Eppendorf tube and stored at − 35 °C. Before use, the homogenate was diluted to a final protein concentration of 0.6 mg/mL.
To avoid the absorption of EntF* onto plasticware and glassware, all tubes and containers were coated with a BSA-based anti-adsorption solution before use.
Five hundred microliters of tissue homogenate were mixed with 400 μL of pre-warmed KH buffer. Then, 100 μL of KH buffer (blank) or 1 mg/mL EntF peptide solution (test) were added to the diluted homogenate and incubated at 37 °C. […] After centrifugation at 16,000g for 30 min at 5 °C, supernatants were analyzed by LC1-MS1 for EntF* quantification.
EntF* was detected and quantified on a Waters Acquity® UPLC H-class system, connected to a Waters Xevo™ TQ-S triple quadrupole mass spectrometer with electrospray ionization (operated in positive ionization mode). Autosampler tray and column oven were kept at 10 ± 5 °C and 60 ± 5 °C, respectively. Chromatographic separation was achieved on a Waters Acquity® UPLC BEH Peptide C18 column (300 Å, 1.7 μm, 2.1 mm × 100 mm). The mobile phases consisted of 93/2/5 water/acetonitrile/DMSO (V/V/V) containing 0.1% formic acid (mobile phase A) and 2/93/5 water/acetonitrile/DMSO (V/V/V) containing 0.1% formic acid (mobile phase B), and the flow rate was set to 0.5 mL/min. A 10-μL aliquot from each sample was injected. The gradient program started with 80% of mobile phase A for 1 min, followed by a linear gradient to 40% of mobile phase A for 3.5 min. Gradient was then changed to 14.2% mobile phase A at 5 min, followed by a 1 min equilibration, before starting conditions were applied. EntF* retention time was between 4.25 and 4.45 min.
An optimized capillary voltage of 3.00 kV, a cone voltage of 20.00 V, and a source offset of 50.0 V were used. Acquisition was done in the MRM mode. The selected precursor ion for EntF* was m/z 865.7 with two selected product ions at m/z 202.08 (36 eV, b2 fragment) as quantifier and m/z 315.17 (31 eV, b3 fragment) as qualifier.

[2] = system: luciferase-transfected HCT-8/E11 cells injected into the cecal wall; assay: Orthotopic mouse model: macroscopic number of tumor nodules on the cecum; assay type: in vivo, female athymic nude mice (Swiss nu/nu)
Protocol: Six-week-old female athymic nude mice (Swiss nu/nu) were anesthetized, and a minimally invasive midline laparotomy was performed to localize the cecum. The cecum was then gently pulled out, and luciferase-transfected HCT-8/E11 cells (1 × 10^6 cells) in 20 μL serum-free DMEM medium with Matrigel (1:1) were injected into the cecal wall. Before implantation, cells were treated with EntF* (10^2 nM), Phr0662 (10^2 nM), vehicle (PBS), or TGFα positive control (0.1 μg mL^−1) solutions for 5 days. The cecum was then carefully placed back into the abdominal cavity and the surgical incision was closed with two layers of sutures with PDS 6-0. […] Once a week, mice were examined for tumor growth and metastases using bioluminescent imaging with the IVIS Lumina II (Perkin Elmer, Belgium) after i.p. injection with 200 μL luciferin (150 mg kg^−1). After 6 weeks, mice were euthanized using cervical dislocation, and the liver, diaphragm, lungs, cecum, duodenum, and peritoneum were macroscopically examined for the presence of tumor nodules. Liver and lung tissues were then fixed in formalin for 24 h and stored in 70% ethanol for maximum 3 days before embedding in paraffin. Next, a hematoxylin and eosin (H&E) staining was performed on 8 μm sections, and 3 sections per mouse were visualized using microscopy. Slides from tumor-bearing mice were analyzed by two blinded, independent investigators using the scoring system described in Additional file 5: Table S3. In case of differences, slides were scored by a third blinded, independent investigator for consensus.
The Kolmogorov-Smirnov test was used to assess if data obtained were normally distributed. For sample size n < 10, non-parametric tests (Mann-Whitney U test) were performed directly. Slope comparison was based on linear regression analysis. Bootstrapped medians and Hedges G-values were used to calculate the effect size when sample sizes were different between the groups. Cohen’s d values were calculated as a measure of the effect size when similar standard deviations for both groups were found, and sample sizes were the same.

[3] = Colon, Time 0, initial concentration EntF 31.82 µM
[4] = Colon, Time 1, initial concentration EntF 31.82 µM
[5] = Colon, Time 5, initial concentration EntF 31.82 µM
[6] = Colon, Time 10, initial concentration EntF 31.82 µM
[7] = Colon, Time 30, initial concentration EntF 31.82 µM
[8] = Colon, Time 60, initial concentration EntF 31.82 µM
[9] = Colon, Time 120, initial concentration EntF 31.82 µM
[10] = Colon, Time 180, initial concentration EntF 31.82 µM

With `CC(C)C[C@@H]1NC(=O)[C@H](CO)NC(=O)[C@H](Cc2ccccc2)NC(=O)[C@H](C(C)C)NC(=O)[C@@H](NC(=O)[C@H](CCC(=O)O)NC(=O)[C@@H](NC(=O)[C@H](CC(C)C)NC(=O)[C@H](CC(N)=O)NC(=O)[C@@H](N)CO)C(C)C)CSSC[C@@H](C(=O)N[C@@H](CC(N)=O)C(=O)O)NC(=O)[C@H](CCCCN)NC(=O)[C@H](CCCCN)NC(=O)[C@H](Cc2ccccc2)NC1=O` (single isomer, unassigned) [EntF*] the “Stability of EntF* in Colon tissue” value ([1]; Colon tissue) was “EntF* is stable in Colon tissue”, the “EntF* Conc” value [1, 3] was 0.00 µM and the “EntF* without metabolisation, Conc” value [1, 3] was 0.00 µM. For the same compound, the “EntF*/EntF %” value [1, 3] was 0.00%, the “EntF* Conc” value [1, 4] was 0.0286 µM and the “EntF*/EntF %” value [1, 4] was 0.09%. For the same compound, the “EntF* Conc” value [1, 5] was 0.20 µM, the “EntF*/EntF %” value [1, 5] was 0.62% and the “EntF* Conc” value [1, 6] was 0.50 µM. The “EntF*/EntF %” value [1, 6] was 1.56%, the “EntF* Conc” value [1, 7] was 0.94 µM and the “EntF*/EntF %” value [1, 7] was 2.94%. For the same compound, the “EntF* Conc” value [1, 8] was 2.03 µM, the “EntF*/EntF %” value [1, 8] was 6.39% and the “EntF* Conc” value [1, 9] was 3.15 µM. For the same compound, the “EntF*/EntF %” value [1, 9] was 9.89%, the “EntF* Conc” value [1, 10] was 5.17 µM and the “EntF*/EntF %” value [1, 10] was 16.25%. For the same compound, the “formation rate of EntF* (from EntF) in colonic tissues” value ([1]; mouse colon tissue homogenate (0.6 mg/mL protein) 500 μL + 400 μL Krebs-Henseleit buffer pH 7.4 + 100 μL 1 mg/mL EntF, 37 °C, aliquots 0-180 min, LC1-MS1, mean ± SEM, n = 7) was 0.11 ± 0.01 % min^−1, the “Formation rate, Colon tissue, Average” value ([1]; mouse colon tissue homogenate, Krebs-Henseleit buffer pH 7.4, 37 °C, LC1-MS1, average of X1-X7) was 0.11 %*min-1 and the “Formation rate, Colon tissue” value ([1]; mouse colon tissue homogenate, Krebs-Henseleit buffer pH 7.4, 37 °C, LC1-MS1, replicate X1) was 0.0898 %*min-1. The “Formation rate, Colon tissue” value ([1]; mouse colon tissue homogenate, Krebs-Henseleit buffer pH 7.4, 37 °C, LC1-MS1, replicate X2) was 0.1249 %*min-1, the “Formation rate, Colon tissue” value ([1]; mouse colon tissue homogenate, Krebs-Henseleit buffer pH 7.4, 37 °C, LC1-MS1, replicate X3) was 0.1563 %*min-1 and the “Formation rate, Colon tissue” value ([1]; mouse colon tissue homogenate, Krebs-Henseleit buffer pH 7.4, 37 °C, LC1-MS1, replicate X4) was 0.0981 %*min-1. For the same compound, the “Formation rate, Colon tissue” value ([1]; mouse colon tissue homogenate, Krebs-Henseleit buffer pH 7.4, 37 °C, LC1-MS1, replicate X5) was 0.1065 %*min-1, the “Formation rate, Colon tissue” value ([1]; mouse colon tissue homogenate, Krebs-Henseleit buffer pH 7.4, 37 °C, LC1-MS1, replicate X6) was 0.0824 %*min-1 and the “Formation rate, Colon tissue” value ([1]; mouse colon tissue homogenate, Krebs-Henseleit buffer pH 7.4, 37 °C, LC1-MS1, replicate X7) was 0.0903 %*min-1. For the same compound, the “effect size class by Hedges' G, number of nodules in the cecum” value ([2]; after a 6-week treatment, compared to the placebo group) was “medium” and the “Mean amount of nodules” value ([2]; macroscopic evaluation caecum, mean of the group) was 11.5.
